Source: PubChem BioAssay (NCI)
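Dose response: 5 concentrations. Exposure: 48 h. Format: 96-well plates. Endpoint: linear interpolation; highest concentration if not reached. GI50 is the concentration that inhibits growth by half. TGI denotes the concentration required for complete inhibition of growth.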

Experiments:
Assay in all cases: NCI anticancer screen, dose series, 48 h
[1] = tested on: SW-620 colon
[2] = tested on: HCC-2998 colon
[3] = tested on: MOLT-4 leukemia
[4] = tested on: HS 578T breast
[5] = tested on: UACC-257 melanoma
[6] = tested on: MDA-MB-435
[7] = tested on: HCT-116 colon
[8] = tested on: SF-539 CNS
[9] = tested on: DU-145 prostate
[10] = tested on: EKVX NSCLC
[11] = tested on: OVCAR-4 ovarian
[12] = tested on: T-47D breast
[13] = tested on: COLO 205 colon
[14] = tested on: K-562 leukemia
[15] = tested on: SN12C renal
[16] = tested on: SNB-75 CNS
[17] = tested on: ACHN renal
[18] = tested on: HOP-62 NSCLC
[19] = tested on: A549 NSCLC
[20] = tested on: MDA-MB-231 breast
[21] = tested on: NCI/ADR-RES ovarian
[22] = tested on: OVCAR-5 ovarian
[23] = tested on: LOX IMVI melanoma
[24] = tested on: HCT-15 colon
[25] = tested on: MCF7 breast
[26] = tested on: RPMI-8226 leukemia
[27] = tested on: KM12 colon
[28] = tested on: NCI-H23 lung

Cc1c(C(=O)N/N=C/c2ccc(O)cc2)nnn1-c1ccnc2c(C(F)(F)F)cccc12
GI50 [1]: > 100 µM | TGI [1]: > 100 µM | GI50 [2]: > 100 µM | TGI [2]: > 100 µM | GI50 [3]: > 100 µM | TGI [3]: > 100 µM | GI50 [4]: 44.6 µM | TGI [4]: > 100 µM | GI50 [5]: > 100 µM | TGI [5]: > 100 µM | GI50 [6]: > 100 µM | TGI [6]: > 100 µM | GI50 [7]: 50.1 µM | TGI [7]: > 100 µM | GI50 [8]: 42 µM | TGI [8]: > 100 µM | GI50 [9]: > 100 µM | TGI [9]: > 100 µM | GI50 [10]: > 100 µM | TGI [10]: > 100 µM | GI50 [11]: 5.09 µM | TGI [11]: > 100 µM | GI50 [12]: 92.5 µM | TGI [12]: > 100 µM | GI50 [13]: > 100 µM | TGI [13]: > 100 µM | GI50 [14]: > 100 µM | TGI [14]: > 100 µM | GI50 [15]: 16.3 µM | TGI [15]: 83.3 µM | GI50 [16]: 19.1 µM | TGI [16]: 40 µM | GI50 [17]: 41.1 µM | TGI [17]: > 100 µM | GI50 [18]: 17.5 µM | TGI [18]: 37 µM | GI50 [19]: > 100 µM | TGI [19]: > 100 µM | GI50 [20]: 12.7 µM | TGI [20]: 48.4 µM | GI50 [21]: > 100 µM | TGI [21]: > 100 µM | GI50 [22]: > 100 µM | TGI [22]: > 100 µM | GI50 [23]: 46.8 µM | TGI [23]: > 100 µM | GI50 [24]: > 100 µM | TGI [24]: > 100 µM | GI50 [25]: 9.12 µM | TGI [25]: > 100 µM | GI50 [26]: > 100 µM | TGI [26]: > 100 µM | GI50 [27]: > 100 µM | TGI [27]: > 100 µM | GI50 [28]: 29.3 µM
